According to patent US5912247A, “Quinazoline compound and anti-tumor agent containing said compound as an active ingredient” (Kanebo, Ltd., priority 1995, dated 1999):
Structures can show the parent of a compound that is named as a salt.

Tests used:
[1] = test system: St-4 solid tumor (human gastric cancer transplantable to nude mouse); assay: Anti-tumor activity against human gastric cancer St-4 (solid tumor) transplanted to nude mouse; assay type: in vivo, human (in male BALB/cA JCI-nu nude mice)
From the text: Anti-tumor activity against human gastric cancer St-4 (solid tumor) transplanted to nude mouse: a) Materials: Test Animal: Male BALB/cA JCI-nu nude mice (six week old, six mice per group) Tumor: St-4 solid tumor (human gastric cancer transplantable to nude mouse) b) Test Method: St-4 solid tumor was cut to about 3 mm cubic, and the fragments were subcutaneously transplanted into the back at one side of the nude mice with a trockar. Ten days after the transplantation, the longitudinal size (L) and the size of the width direction (W) of the tumor were measured. The tumor weight was calculated by the formula: L×W×W/2, and when the weight of the tumor reached 100 mg to 300 mg, the mice were randomized. To the mice in test groups, the test compound was orally administered once a day for 40 days. The test compounds of this invention were administered in an amount of 30 mg/kg or 40 mg/kg in the form of a solution in distilled water, and No. 5666 was administered in an amount of 30 mg/kg or 100 mg/kg in the form of a suspension in 5% arabic gum solution. After the administration of the test compounds, the longitudinal size and the size in the width direction of the tumor were measured, and then the weight of tumor was calculated. The ratio of the tumor weight after treated with test compounds to the tumor weight before administration of test compounds (i.e. the relative tumor weight) was determined. As to the control group, the relative tumor weight was also determined likewise. The anti-tumor activity was evaluated in the same manner as described in Ann. Clin. Lab. Sci., 8 (1), 50 (1978). That is, the ratio of the relative tumor weight in the test group (T) to that in the control group (C) [T/C (%)] was calculated, and when the minimum of the ratio [Min.

Colon 26 solid tumor = assay: Inhibitory activity of dye accumulation in the solid tumor tissue (inhibition of the tumor blood flow); assay type: in vivo, Male BALB/c mice; parameters: key to Inhibitory activity of dye accumulation into solid tumor: +: The average absorbance in the test group is significantly smaller than the average absorbance in the control group.; -: There is no significant difference in the average absorbance between the test group and the control group; conditions: for Inhibitory activity of dye accumulation into solid tumor: intravenous, Evans blue 1 hour after administration
Method: Inhibitory activity of dye accumulation in the solid tumor tissue (inhibition of the tumor blood flow): a) Materials: Test Animal: Male BALB/c mice (weighing 21-27 g, six mice per group) Tumor: Colon 26 solid tumor b) Test Method: Colon 26 solid tumor was cut in a size of about 1 mm square. The pieces of solid tumor were treated with a 0.25% collagenase solution and 0.02% deoxyribonuclease solution at 37° C. for 1.5 hour to give a cell suspension of colon 26 solid tumor cells. The cell suspension was adjusted to 3×10^6 cells/ml and the cell suspension (100 μl) was subcutaneously inoculated on the right back of male BALB/c mice. Ten days after the transplantation, the longitudinal size of the tumor was measured, and when the longitudinal size of the tumor reached about 10 mm, the mice were randomized. To the mice in test groups, the test compound was intravenously administered in an amount of 10 mg/kg or 1.25 mg/kg. The test compound was administered in the form of a solution in saline (in the test solution of Test Compound BF and BK, an equimolar amount of fumaric acid was further added, and in the test solution of Test Compound BN, an equimolar amount of hydrochloric acid was further added). To the mice in the control group, only saline was administered intravenously. One hour after the administration, 3% Evans blue-saline solution was injected intravenously via the tail vein of the mice in a volume of 0.1 ml per 10 g of the body weight of mouse, and 5 minutes later the mice were killed by luxation of the cervical vertebrae. After removing the tumor, the tumor was weighed. To extract Evans blue, the tumor was suspensed in 0.5% aqueous sodium sulfate (1.5 ml per 1 g of the tumor) and acetone (3.5 ml per 1 g of tumor), and then the tumor was cut into small pieces. After allowing to stand at room temperature overnight, the suspension were centrifuged at 3,000 rpm for 10 minutes to extract Evans blue, and the absorbance of the supernatant was read at 630 nm. […] (-): There is no significant difference in the average absorbance between the test group and the control group.

Acute toxicity = conditions: mouse, in vivo, one week observation
Method: Test Animal: Male ddY mice (5 week old, five mice per group)
To male ddY mice was administered a solution of a test compound in saline intravenously, or a solution of a test compound in distilled water orally. One week after the administration, the number of death of mice was counted, and the LD50 was calculated therefrom by a probit method.

[2] = test system: test blood cell suspension; assay: Hemolytic activity; assay type: cell-based, Male Donryu rats; conditions: 20 μg/ml
Method: (§1) Hemolytic activity: a) Materials: Test Animal: Male Donryu rats Test Compounds: The same as in Experiment 1 b) Test Method: Blood (about 6 ml or more) was collected from abdominal large vein of male Donryu rats, which was taken in a test tube containing dipotassium ethylenediamine tetraacetate (10 mg). The blood thus collected was divided into each 2 ml, which was centrifuged at 3,000 rpm for 5 minutes. After removing the supernatant, a 150 mM phosphate buffer (pH 7.4) (10 ml) was added thereto, and the mixture was mildly mixed. The mixture was centrifuged at 3,000 rpm for 5 minutes, followed by washing with the same phosphate buffer as above. This procedure was repeated twice. Finally, the same phosphate buffer was added thereto to prepare a test blood cell suspension. The test compound was dissolved in a saline solution in a concentration of 2 mg/ml in case of No. 5666, and of 20 mg/ml in case of the test compounds of this invention. […] Immediately after the incubation, the mixture was centrifuged at 3,000 rpm for 5 minutes, and the supernatant (each 200 μl) was added to a well of a 96 well microplate (an immunoassay plate with plane bottom), and the absorbance (OD: optical density) was read with a microplate reader (at a wavelength of 550 nm). […] The hemolytic rate was calculated by the following equation: [formula] […]

Hemolytic activity = assay type: cell-based, Male Donryu rats; conditions: rat, red blood cells; 20 μg/ml, 37° C., 60 minutes; read-out: hemolytic ratio
Method: as §1

CC(=O)O.O[C@@H]1COC[C@H]1Oc1nc(N2CCNCC2)nc2ccccc12 [Compound AI, 4-[(3R,4R)-(4-Hydroxytetrahydrofuran-3-yl)oxy]-2-(1-piperazinyl)quinazoline monoacetate]
Evaluation ([1]; 40 mg/kg (po) (× 40 days)): Effective (when the minimum of the ratio [Min. T/C (%)] was less than 42%, the test compound was evaluated as "effective") | Min. T/C (%) ([1]; 40 mg/kg (po) (× 40 days)): 31.7% | Inhibitory activity of dye accumulation into solid tumor (Colon 26 solid tumor; 1.25 mg/kg): + | Inhibitory activity of dye accumulation into solid tumor (Colon 26 solid tumor; 10 mg/kg): +

Cl.OC[C@H](O)CCOc1nc(N2CCNCC2)nc2ccccc12 [Compound BJ, 4-[(3R)-(3,4-Dihydroxybutan-1-yl)oxy]-2-(1-piperazinyl)quinazoline monohydrochloride]
Evaluation ([1]; 30 mg/kg (po) (× 40 days)): Effective (when the minimum of the ratio [Min. T/C (%)] was less than 42%, the test compound was evaluated as "effective") | Min. T/C (%) ([1]; 30 mg/kg (po) (× 40 days)): 38.8% | LD50 at 168 h (Acute toxicity; Intravenous injection): 118 mg/kg | LD50 at 168 h (Acute toxicity; Oral administration): > 1000 mg/kg | Inhibitory activity of dye accumulation into solid tumor (Colon 26 solid tumor; 1.25 mg/kg): + | Inhibitory activity of dye accumulation into solid tumor (Colon 26 solid tumor; 10 mg/kg): +

C=CCN1CCN(c2nc(OCCCCC)c3ccccc3n2)CC1.O=C(O)/C=C/C(=O)O [No. 5666, 2-(4-Allylpiperazin-1-yl)-4-[(1-pentyl)oxy]-quinazoline monofumarate, reference compound]
Evaluation ([1]; 30 mg/kg (po) (× 40 days)): Non-effective | Min. T/C (%) ([1]; 30 mg/kg (po) (× 40 days)): 59.7% | Evaluation ([1]; 100 mg/kg (po) (× 40 days)): Effective (when the minimum of the ratio [Min. T/C (%)] was less than 42%, the test compound was evaluated as "effective") | Min. T/C (%) ([1]; 100 mg/kg (po) (× 40 days)): 29.9% | Inhibitory activity of dye accumulation into solid tumor (Colon 26 solid tumor; 1.25 mg/kg): - | Inhibitory activity of dye accumulation into solid tumor (Colon 26 solid tumor; 10 mg/kg): + | inhibition of the flow of blood into tumor tissue / dye accumulation (in words) (Colon 26 solid tumor; mouse solid tumor (colon 26)): has such an inhibitory activity | hemolytic activity (in words) [2]: induced hemolytic activity | hemolysis at 1 h (Hemolytic activity): 38%

CC(=O)O.O[C@H]1COC[C@@H]1Oc1nc(N2CCNCC2)nc2ccccc12 [Compound AH, 4-[(3S,4S)-(4-Hydroxytetrahydrofuran-3-yl)oxy]-2-(1-piperazinyl)quinazoline monoacetate]
Inhibitory activity of dye accumulation into solid tumor (Colon 26 solid tumor; 1.25 mg/kg): + | Inhibitory activity of dye accumulation into solid tumor (Colon 26 solid tumor; 10 mg/kg): +

O[C@@H]1C[C@@H](Oc2nc(N3CCNCC3)nc3ccccc23)C[C@@H]1O [Compound AM, 4-[(t-3,t-4-Dihydroxycyclopentan-r-1-yl)oxy]-2-(1-piperazinyl)quinazoline monohydrochloride]
Evaluation ([1]; 30 mg/kg (po) (× 40 days)): Effective (when the minimum of the ratio [Min. T/C (%)] was less than 42%, the test compound was evaluated as "effective") | Min. T/C (%) ([1]; 30 mg/kg (po) (× 40 days)): 36.1% | LD50 at 168 h (Acute toxicity; Intravenous injection): 101 mg/kg | LD50 at 168 h (Acute toxicity; Oral administration): > 500 mg/kg | Inhibitory activity of dye accumulation into solid tumor (Colon 26 solid tumor; 1.25 mg/kg): + | Inhibitory activity of dye accumulation into solid tumor (Colon 26 solid tumor; 10 mg/kg): +

CO[C@H]1C[C@@H](Oc2nc(N3CCNCC3)nc3ccccc23)[C@H](O)[C@@H]1O.Cl [Compound AT, 4-[(1R,2R,3S,4S)-(2,3-Dihydroxy-4-methoxy-cyclopentan-1-yl)oxy]-2-(1-piperazinyl)quinazoline mono-hydrochloride]
Inhibitory activity of dye accumulation into solid tumor (Colon 26 solid tumor; 1.25 mg/kg): + | Inhibitory activity of dye accumulation into solid tumor (Colon 26 solid tumor; 10 mg/kg): +

CO[C@@H]1C[C@H](Oc2nc(N3CCNCC3)nc3ccccc23)[C@@H](O)[C@H]1O [Compound AR, 4-[(1S,2S,3R,4R)-(2,3-Dihydroxy-4-methoxy-cyclopentan-1-yl)oxy]-2-(1-piperazinyl)quinazoline 1/2 fumarate]
Inhibitory activity of dye accumulation into solid tumor (Colon 26 solid tumor; 1.25 mg/kg): + | Inhibitory activity of dye accumulation into solid tumor (Colon 26 solid tumor; 10 mg/kg): +

C[C@H](O)[C@@H](O)COc1nc(N2CCNCC2)nc2ccccc12.Cl [Compound BG, 4-[(2S,3S)-(2,3-Dihydroxybutan-1-yl)oxy]-2-(1-piperazinyl)quinazoline monohydrochloride]
Inhibitory activity of dye accumulation into solid tumor (Colon 26 solid tumor; 1.25 mg/kg): + | Inhibitory activity of dye accumulation into solid tumor (Colon 26 solid tumor; 10 mg/kg): +
